Data published in patent publication US20210116454A1, “METHODS FOR TREATING A HEMATOLOGICAL CANCER AND THE USE OF COMPANION BIOMARKERS FOR 2-(2,6-DIOXOPIPERIDIN-3-YL)-4-((2-FLUORO-4-((3-MORPHOLINOAZETIDIN-1-YL)METHYL)BENZYL)AMINO)ISOINDOLINE-1,3-DIONE” (CELGENE CORPORATION, priority 2019, published 2021).
pEC50, pIC50: −log10 of the molar value. Read-outs that look alike come from different tables or passages of the source.

Key:
Assay type in all cases: cell-based
Aiolos = target: T1, Aiolos (Homo sapiens, UniProt Q96SW2+Q9UKT9); experiment: Enzyme fragment complementation (EFC) degradation assay, DF15 cells expressing ePL-tagged substrate; conditions: for Emax: DF15, DF15 ePL-Aiolos, remaining substrate; for DC50: DF15 ePL-Aiolos, read-out: Aiolos degradation EC50
T1 construct: expressed in transfected cells; host or cells: DF15 cells

Pfeiffer = experiment: 5-day viable cell number and apoptosis (7-AAD exclusion/Annexin V flow cytometry)
How it was run: (§1)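 DLBCL lines were exposed to increasing compound doses for five days. Viable cell number was then counted, and apoptosis was scored by flow cytometry using 7-AAD exclusion with Annexin V staining.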

RIVA = experiment: as above
How it was run: as §1

SU-DHL-2 = experiment: as above
How it was run: as §1

OCI-Ly10 = experiment: as above
How it was run: as §1

TMD8 = experiment: as above; conditions: TMD8 cells, 5 days
How it was run: as §1

HT = experiment: as above
How it was run: as §1

SU-DHL-16 = experiment: as above
How it was run: as §1

WSU-DLCL2 = experiment: as above; conditions: Homo sapiens, WSUDLCL2, 120 h, WSU-DLCL2 cells, 5 days
How it was run: as §1

[1] = Homo sapiens, 120 h, Pfeiffer cells, 5 days
[2] = Homo sapiens, 120 h, SU-DHL-2 cells, 5 days
[3] = Homo sapiens, 120 h, OCI-Ly10 cells, 5 days
[4] = Homo sapiens, 120 h, HT cells, 5 days
[5] = Homo sapiens, 120 h, SU-DHL-16 cells, 5 days

T1 sequence (Q9UKT9 whole entry, the tested form may be a part): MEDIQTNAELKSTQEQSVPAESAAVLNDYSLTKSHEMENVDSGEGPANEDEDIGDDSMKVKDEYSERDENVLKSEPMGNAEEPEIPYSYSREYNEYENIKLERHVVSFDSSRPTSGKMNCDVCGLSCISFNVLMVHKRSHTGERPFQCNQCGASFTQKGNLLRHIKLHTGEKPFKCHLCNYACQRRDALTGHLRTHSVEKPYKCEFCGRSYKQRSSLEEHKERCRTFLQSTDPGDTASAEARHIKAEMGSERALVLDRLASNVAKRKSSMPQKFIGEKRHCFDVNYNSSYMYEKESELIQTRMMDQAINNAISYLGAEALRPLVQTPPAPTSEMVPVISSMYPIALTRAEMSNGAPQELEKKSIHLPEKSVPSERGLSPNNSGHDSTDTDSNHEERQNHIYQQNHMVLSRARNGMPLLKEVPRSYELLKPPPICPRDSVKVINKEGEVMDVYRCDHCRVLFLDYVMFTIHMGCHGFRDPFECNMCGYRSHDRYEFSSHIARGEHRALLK
T1 sequence (Q96SW2 whole entry, the tested form may be a part): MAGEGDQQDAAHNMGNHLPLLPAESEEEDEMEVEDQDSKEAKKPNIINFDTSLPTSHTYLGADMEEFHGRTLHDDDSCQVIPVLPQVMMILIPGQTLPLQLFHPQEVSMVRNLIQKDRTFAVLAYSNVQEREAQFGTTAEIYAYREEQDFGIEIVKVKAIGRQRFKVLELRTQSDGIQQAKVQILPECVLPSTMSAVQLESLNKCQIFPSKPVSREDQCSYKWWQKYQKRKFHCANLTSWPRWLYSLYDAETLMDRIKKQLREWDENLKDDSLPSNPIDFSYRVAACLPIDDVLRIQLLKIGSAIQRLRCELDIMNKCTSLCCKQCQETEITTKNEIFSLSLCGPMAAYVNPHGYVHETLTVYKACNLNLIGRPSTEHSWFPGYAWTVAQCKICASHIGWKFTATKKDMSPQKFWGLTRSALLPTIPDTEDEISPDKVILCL
T1 sequence (Q16531 whole entry partner, the tested form may be a part): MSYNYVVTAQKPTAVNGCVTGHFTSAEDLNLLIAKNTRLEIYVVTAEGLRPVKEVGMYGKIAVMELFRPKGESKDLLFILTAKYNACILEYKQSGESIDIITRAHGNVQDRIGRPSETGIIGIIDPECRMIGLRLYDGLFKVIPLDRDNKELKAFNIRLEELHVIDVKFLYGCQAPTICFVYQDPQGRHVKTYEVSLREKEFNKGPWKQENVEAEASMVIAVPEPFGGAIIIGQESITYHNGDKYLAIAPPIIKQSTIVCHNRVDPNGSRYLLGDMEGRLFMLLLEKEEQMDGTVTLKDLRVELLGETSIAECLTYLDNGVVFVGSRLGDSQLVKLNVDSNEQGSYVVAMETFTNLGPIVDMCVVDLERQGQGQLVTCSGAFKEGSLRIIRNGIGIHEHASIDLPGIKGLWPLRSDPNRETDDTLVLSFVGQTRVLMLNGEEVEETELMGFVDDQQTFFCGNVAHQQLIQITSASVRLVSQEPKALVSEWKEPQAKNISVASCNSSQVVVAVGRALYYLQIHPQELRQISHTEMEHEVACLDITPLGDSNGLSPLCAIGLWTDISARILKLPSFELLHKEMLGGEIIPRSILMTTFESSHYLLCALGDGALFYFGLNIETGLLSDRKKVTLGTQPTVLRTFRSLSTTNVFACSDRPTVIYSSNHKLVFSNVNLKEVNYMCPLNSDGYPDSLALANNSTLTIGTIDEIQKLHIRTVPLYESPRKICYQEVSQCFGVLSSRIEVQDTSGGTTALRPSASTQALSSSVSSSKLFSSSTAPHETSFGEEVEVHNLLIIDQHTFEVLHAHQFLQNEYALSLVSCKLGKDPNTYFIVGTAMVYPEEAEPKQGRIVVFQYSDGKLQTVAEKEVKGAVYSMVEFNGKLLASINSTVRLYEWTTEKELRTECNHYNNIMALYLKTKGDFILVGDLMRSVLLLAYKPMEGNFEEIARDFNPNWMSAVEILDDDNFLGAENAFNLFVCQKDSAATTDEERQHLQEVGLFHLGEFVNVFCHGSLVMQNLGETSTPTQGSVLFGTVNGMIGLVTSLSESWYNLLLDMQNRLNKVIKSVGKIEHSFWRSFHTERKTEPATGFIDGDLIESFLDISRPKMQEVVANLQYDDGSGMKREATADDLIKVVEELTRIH

O=C1CC[C@H](N2C(=O)c3cccc(NCc4ccc(CN5CC(N6CCOCC6)C5)cc4F)c3C2=O)C(=O)N1 [Compound 1, (S)-2-(2,6-dioxopiperidin-3-yl)-4-((2-fluoro-4-((3-morpholinoazetidin-1-yl)methyl)benzyl)amino)isoindoline-1,3-dione]
Emax (Aiolos; 1 hour): 60% | Emax (Aiolos; 2 hours): 16.5% | Emax (Aiolos; 6 hours): 6% | Emax (Aiolos; 24 hours): 7% | DC50 (Aiolos; 1 hour): 0.6 nM | DC50 (Aiolos; 2 hours): 0.5 nM | DC50 (Aiolos; 6 hours): 0.2 nM | DC50 (Aiolos; 24 hours): 0.2 nM | pEC50 (Pfeiffer; [1]): 6.52 | Emax (Pfeiffer; [1]): 8.01% | pIC50 (Pfeiffer; Homo sapiens, Pfeiffer cells (Table 3)): 3.07 | % Viable Cells AUC (Pfeiffer; Pfeiffer cells, 5 days): 912.3 | % Viable Cells Emax (Pfeiffer; Pfeiffer cells, 5 days): 86.19% | % Viable Cells Sensitivity (Pfeiffer; Pfeiffer cells, 5 days): Limited | Apoptosis AUC (Pfeiffer; Pfeiffer cells, 5 days): 133.5 | Apoptosis Sensitivity (Pfeiffer; Pfeiffer cells, 5 days): Limited | pEC50 (RIVA; 120 h, RIVA cells, 5 days): 7.72 | Emax (RIVA; 120 h, RIVA cells, 5 days): 22.7% | pIC50 (RIVA; 120 h, RIVA cells, 5 days, read-out: % Viable Cells IC50): 7.30 | pIC50 (RIVA; RIVA cells (Table 3), read-out: IC50): 3.40 | % Viable Cells AUC (RIVA; RIVA cells, 5 days): 395.8 | % Viable Cells Emax (RIVA; RIVA cells, 5 days): 36.99% | % Viable Cells Sensitivity (RIVA; RIVA cells, 5 days): Intermediate (intermediate sensitivity with 15% to 55% cell viability) | Apoptosis AUC (RIVA; RIVA cells, 5 days): 216.6 | Apoptosis Sensitivity (RIVA; RIVA cells, 5 days): Intermediate | pEC50 (SU-DHL-2; [2]): 8.11 | Emax (SU-DHL-2; [2]): 75.2% | pIC50 (SU-DHL-2; Homo sapiens, 120 h, SU-DHL-2 cells, 5 days, read-out: % Viable Cells IC50): 8.89 | pIC50 (SU-DHL-2; Homo sapiens, SU-DHL-2 cells (Table 3), read-out: IC50): 5.15 | % Viable Cells AUC (SU-DHL-2; SU-DHL-2 cells, 5 days): 6.871 | % Viable Cells Emax (SU-DHL-2; SU-DHL-2 cells, 5 days): 1.264% | % Viable Cells Sensitivity (SU-DHL-2; SU-DHL-2 cells, 5 days): High (highly sensitive to Compound 1 with less than 6% viable cells remaining (Emax) after treatment) | Apoptosis AUC (SU-DHL-2; SU-DHL-2 cells, 5 days): 745 | Apoptosis Sensitivity (SU-DHL-2; SU-DHL-2 cells, 5 days): High | pEC50 (OCI-Ly10; [3]): 5.68 | Emax (OCI-Ly10; [3]): 29.4% | pIC50 (OCI-Ly10; Homo sapiens, 120 h, OCI-Ly10 cells, 5 days, read-out: % Viable Cells IC50): 7.30 | pIC50 (OCI-Ly10; Homo sapiens, OCI-Ly10 cells (Table 3), read-out: IC50): 3.57 | % Viable Cells AUC (OCI-Ly10; OCI-Ly10 cells, 5 days): 267.3 | % Viable Cells Emax (OCI-Ly10; OCI-Ly10 cells, 5 days): 19.19% | % Viable Cells Sensitivity (OCI-Ly10; OCI-Ly10 cells, 5 days): Intermediate (intermediate sensitivity with 15% to 55% cell viability) | Apoptosis AUC (OCI-Ly10; OCI-Ly10 cells, 5 days): 187.7 | Apoptosis Sensitivity (OCI-Ly10; OCI-Ly10 cells, 5 days): Intermediate | pEC50 (TMD8; Homo sapiens, 120 h): 8.35 | Emax (TMD8; Homo sapiens, 120 h): 83.2% | pIC50 (TMD8; Homo sapiens, 120 h, read-out: % Viable Cells IC50): 8.52 | % Viable Cells AUC (TMD8): 3.911 | % Viable Cells Emax (TMD8): 1.365% | % Viable Cells Sensitivity (TMD8): High (highly sensitive to Compound 1 with less than 6% viable cells remaining (Emax) after treatment) | Apoptosis AUC (TMD8): 826.8 | Apoptosis Sensitivity (TMD8): High | % Viable Cells AUC (HT; HT cells, 5 days): 434.8 | % Viable Cells Emax (HT; HT cells, 5 days): 45.18% | % Viable Cells Sensitivity (HT; HT cells, 5 days): Intermediate (intermediate sensitivity with 15% to 55% cell viability) | Apoptosis AUC (HT; HT cells, 5 days): 158.2 | Apoptosis Sensitivity (HT; HT cells, 5 days): Intermediate | pEC50 (HT; [4]): 8.11 | Emax (HT; [4]): 16.6% | pIC50 (HT; Homo sapiens, 120 h, HT cells, 5 days, read-out: % Viable Cells IC50): 6.33 | pIC50 (HT; Homo sapiens, HT cells (Table 3), read-out: IC50): 3.36 | pEC50 (SU-DHL-16; [5]): 6.58 | Emax (SU-DHL-16; [5]): 18.2% | pIC50 (SU-DHL-16; Homo sapiens, 120 h, SU-DHL-16 cells, 5 days, read-out: % Viable Cells IC50): 6.92 | pIC50 (SU-DHL-16; Homo sapiens, SU-DHL-16 cells (Table 3), read-out: IC50): 3.44 | % Viable Cells AUC (SU-DHL-16; SU-DHL-16 cells, 5 days): 359.7 | % Viable Cells Emax (SU-DHL-16; SU-DHL-16 cells, 5 days): 30.33% | % Viable Cells Sensitivity (SU-DHL-16; SU-DHL-16 cells, 5 days): Intermediate (intermediate sensitivity with 15% to 55% cell viability) | Apoptosis AUC (SU-DHL-16; SU-DHL-16 cells, 5 days): 159.1 | Apoptosis Sensitivity (SU-DHL-16; SU-DHL-16 cells, 5 days): Intermediate | pEC50 (WSU-DLCL2): 7.11 | Emax (WSU-DLCL2): 47.8% | pIC50 (WSU-DLCL2; read-out: % Viable Cells IC50): 7.70
